Publication PMC12598616, “Design and optimization of caspase-1-responsive fluorescent probes for pyroptosis imaging and anti-pyroptosis drug screening” (Chemical Science, 2025)

System: caspase-4
Experiment: Selectivity of probes: caspase-4
Format: biochemical, human
Details: caspase-4 2 U/mL, 37 °C, 2 h, λex 510 nm, λem 585 nm
Description: The resin used for SPPS was purchased from GL Biochem (Shanghai, China). Lipopolysaccharide (LPS, L2630), Nigericin and ATP (11140965001) were purchased from Merck (Shanghai, China) and Invitrogen (Shanghai, China), respectively. Cell culture plates were sourced from Wuxi NEST Biotechnology. Recombinant human caspase-1, caspase-3, caspase-4, and caspase-8 were obtained from Abcam and MCE (Shanghai, China). Anti-cleaved caspase-1 antibody, anti-GAPDH antibody, and goat anti-Rabbit/anti-mouse lgG/HRP were purchased from CST (USA) and Beyotime […]
(Shanghai, China). […]
Medical College (ethical approval number ZJCLA-IACUC-20011003). […]
To investigate the sensitivity of the probes for caspase-1, varying concentration of caspase-1 (0, 0.2, 0.4, 0.6, 0.8, 1.0, 1.25, 1.5, 1.75, 2, 2.5, 3 U/mL) were incubated with FPy1 (5 μM), YPy1 (5 μM) and WPy1 (5 μM) respectively in caspase-1 assay buffer (50 mM HEPES, 50 mM NaCl, 0.1 % chaps, 5 % glycerol, 10 mM DTT, 10 mM EDTA) at 37 °C for 2 hours. Fluorescence spectra were recorded using Hitachi F-2700 spectrophotometer with an excitation at 510 nm (Photomultiplier voltage 700 V; Slit widths ex: 10 nm and em =5.0 nm). […] The limit of detection (LoD) was calculated from 3σ/k, in which σ represents the standard deviation of 15 blank measurements. […]
10 nm and em =5.0 nm). The fluorescence intensity of FPy1, YPy1 and WPy1 at 585 nm were plotted separately against […]

| Substance | fluorescence response to caspase-4 |
| --- | --- |
| –FLTDG– [FPy1, RhoB donor, hNR quencher] | almost no response |
| –YVADG– [YPy1, caspase-1-responsive FRET probe with recognition peptide –YVADG–; RhoB donor, hNR quencher] | almost no response |
